{"source": "patent US20120238532A1", "about": "“TREATMENT OF HUMAN OSTEOSARCOMA” (CEDARS-SINAI MEDICAL CENTER, priority 2009, published 2012)", "key": {"[1]": {"molecular_target": "T1, ERK protein (Homo sapiens, UniProt P28482)", "T1 construct": "confluent MG-63 cells were harvested and lysed with lysis buffer; endogenous in cells; host or cells: MG-63 whole-cell lysate", "T1 sequence (P28482 2-360 limits assumed)": "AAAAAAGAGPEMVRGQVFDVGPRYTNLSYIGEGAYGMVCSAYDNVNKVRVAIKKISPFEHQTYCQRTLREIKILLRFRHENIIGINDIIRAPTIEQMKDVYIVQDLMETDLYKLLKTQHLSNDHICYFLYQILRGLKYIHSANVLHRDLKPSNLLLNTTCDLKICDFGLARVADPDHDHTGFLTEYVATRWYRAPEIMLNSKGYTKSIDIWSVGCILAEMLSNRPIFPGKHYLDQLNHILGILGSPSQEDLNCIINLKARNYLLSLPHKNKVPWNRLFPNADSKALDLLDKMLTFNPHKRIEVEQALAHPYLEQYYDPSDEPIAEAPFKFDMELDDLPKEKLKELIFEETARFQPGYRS", "test": "DARTS analysis, ERK", "type": "binding", "conditions": "MG-63 lysates; data not shown"}, "[2]": {"system": "Akt", "test": "Western blotting, Akt phosphorylation", "type": "cell-based, human", "conditions": "MG-63 cells", "experimental": "(§1) Changes in protein level by CuB were checked by Western blotting. […] After 2, 9, and 20 hours of exposure, cells were harvested and immediately lysed with RIPA buffer (Millipore—Upstate, Temecula, Calif.) supplemented with protease inhibitor cocktail (Roche, San Francisco, Calif.), 0.5 mM PMSF (Roche), and 50 mM NaF (Sigma). After 20 minutes of incubation on ice, protein concentrations were measured by Bradford assay with Bio Rad protein assay solution (Bio-Rad, Hercules, Calif.) and samples were adjusted to the same protein concentration. Samples were mixed with 2× Laemmli sample buffer (Bio-Rad) with 5% β-mercaptoethanol (Sigma) and incubated at 95° C. for 10 min to denature the protein. After brief incubation on ice, proteins were separated by SDS-PAGE, transferred to nitrocellulose membrane (Sigma), and blotted with antibodies from either Cell Signaling Technology (Danvers, Mass.) or Santa Cruz Biotechnology (Santa Cruz, Calif.). Target proteins were visualized by Supersignal West Dura Substrate (Thermo-Pierce, Rockford, Ill.). GAPDH protein was used as a loading control."}, "[3]": {"system": "MG-63 cells", "test": "Annexin V-FITC apoptosis assay, MG-63", "type": "cell-based, human", "conditions": "at ED50, 72 hours of exposure", "experimental": "(§2) Cells were harvested and fixed with 70% ethanol at regular time intervals. Fixed cells were stained with propidium iodide (PI) for flow cytometry analysis using BD FACScan (BD Biosciences, San Jose, Calif.). Distribution of cell cycle was analyzed by ModFit LT V2.0 software (Verity Software House, Topsham, Me.). […] After 24, 48, and 72 hours of exposure, cells were harvested and stained with PI and fluorescein isothiocyanate (FITC) using Annexin V-FITC apoptosis detection kit (BD Biosciences) according to the manufacturer's protocol. Cells were subjected to flow cytometry analysis within one hour of staining."}, "[4]": {"system": "phospho-mTOR (S2448) and survivin", "test": "Western blots from snap-frozen xenograft tumors", "type": "in vivo", "conditions": "mice treated with LD-CuB, day 35", "experimental": "as §1, with “Target proteins were visualized by Supersignal West Dura Substrate (Thermo-Pierce, Rockford, Ill.). GAPDH protein was used as a loading control.” left out\nAll animal experiments strictly followed the guidelines of Cedars-Sinai Medical Center and the National Institute of Health (NIH). […] After 24 hours, tumor size was measured, and any outliers were ruled out by one-way analysis of variance (ANOVA) test. […] Body weights were monitored every 2 days. Tumor size was measured every 2 days, and the tumor volume was calculated using the following formula: A (length)×B (width)×C (height)×0.5236 (16). […]"}, "[5]": {"system": "MG-63 cells", "test": "Cell cycle analysis (PI, FACS), MG-63", "type": "cell-based, human", "experimental": "as §2"}, "[6]": {"system": "SAOS-2 cells", "test": "MTT assay, SAOS-2 (dose-response, pulse-exposure, combination)", "type": "cell-based, human", "conditions": "pulse-exposed at ED50 for 2, 9, and 20 hours", "experimental": "7 human OS cell lines (U2OS, G292, MG-63, HT-161, HOS, SAOS-2, and SJSA) were used in the study. Each cell line except HT-161 was obtained from the American Type Culture Collection (ATCC, Rockville, Md.). HT-161 was obtained from Dr. Emil Bogenmann (13). All cell lines were tested and authenticated prior to use according to cell line verification test recommendations by ATCC. OS cell lines were maintained in DMEM medium (Mediatech Inc., Herndon, Va.) supplemented with 10% fetal bovine serum (FBS; Atlanta Biological, Lawrenceville, Ga.) in a humidified incubator at 37° C. supplied with 5% CO2. Only the cells in exponential growth phase were used in the study.\nCell growth and survival were measured by 3-(4,5-dimethylthiazol-2-yl)-2,5-diphenyltetrazolium bromide (MTT) assay. […] After 48 hours of incubation, 10 μl of 5 mg/ml MTT solution (Sigma-Aldrich, St. Louis, Mo.) was added to each well and incubated further for 2 hours. […] For pulse-exposure experiments, MG-63 and SAOS-2 cells were seeded in 96-well plates and exposed to CuB at their ED50. After 2, 9, and 20 hours of exposure, cells were washed twice with PBS and incubated further in CuB-free media. Cell growth was checked by MTT assay at 24, 48, and 72 hours.\nCalcusyn 2.0 (Biosoft, Ferguson, Mo.) was used for CI analysis."}, "[7]": {"system": "S6K and 4EBP1", "test": "Western blotting, downstream targets of mTOR", "type": "cell-based, human", "conditions": "MG-63 and SAOS-2 cells", "experimental": "as §1"}, "[8]": {"test": "Organ weight in mice", "type": "in vivo", "conditions": "day 35", "description": "At autopsy, tumors and internal organs including liver, spleen, kidneys were excised, weighed, and then fixed in 10% PBS-buffered formalin and maintained in 70% ethanol. For IHC, fixed tumors and organs were embedded in paraplast (Oxford Labware, St. Louis, Mo.), cut in 6 μm thick sections, and stained with hematoxylin and eosin (HE) for histopathological examination."}, "[9]": {"system": "cyclin A and cyclin-dependent kinase inhibitor 1 (p21^WAF1)", "test": "Western blotting, cyclin A and p21^WAF1", "type": "cell-based, human", "conditions": "MG-63 and SAOS-2 cells", "experimental": "as §1"}}, "data": [{"smiles": "CC(=O)OC(C)(C)/C=C/C(=O)[C@](C)(O)[C@H]1[C@H](O)C[C@@]2(C)[C@@H]3CC=C4[C@H](C[C@H](O)C(=O)C4(C)C)[C@]3(C)C(=O)C[C@]12C", "note": "[CuB, cucurbitacin B]", "values": [{"measurement": "protection of ERK protein (DARTS)", "setting": "[1]", "result": "could not find any evidence that the ERK protein was protected by CuB"}, {"measurement": "Akt phosphorylation at S473", "setting": "[2]", "result": "Inhibition of Akt phosphorylation at S473 was observed in MG-63 cells"}, {"measurement": "apoptotic cells", "setting": "[3]", "result": 44, "unit": "%"}, {"measurement": "phospho-mTOR (S2448) and survivin in tumors", "setting": "[4]", "result": "decreased amount of phospho-mTOR (S2448) and its downstream target survivin"}, {"measurement": "increase of G2/M phase", "setting": "[5]; 20 hours of exposure", "result": "around 3 fold"}, {"measurement": "G2/M phase", "setting": "[5]; 20 hours of exposure at ED50 (control 27%)", "result": 76, "unit": "%"}, {"measurement": "cell death after pulse-exposure", "setting": "[6]", "result": "longer exposure to CuB induced more cell death"}, {"measurement": "downstream targets of mTOR (S6K, 4EBP1)", "setting": "[7]", "result": "Inhibition of downstream targets of mTOR such as S6K and 4EBP1"}, {"measurement": "Kidney organ weight", "setting": "[8]; HD-CuB 1.0 mg/kg", "result": "370 ± 1", "unit": "mg"}, {"measurement": "Liver organ weight", "setting": "[8]; HD-CuB 1.0 mg/kg", "result": "1260 ± 141", "unit": "mg"}, {"measurement": "Spleen organ weight", "setting": "[8]; HD-CuB 1.0 mg/kg", "result": "110 ± 1", "unit": "mg"}, {"measurement": "Kidney organ weight", "setting": "[8]; LD-CuB 0.5 mg/kg", "result": "360 ± 1", "unit": "mg"}, {"measurement": "Liver organ weight", "setting": "[8]; LD-CuB 0.5 mg/kg", "result": "1250 ± 60", "unit": "mg"}, {"measurement": "Spleen organ weight", "setting": "[8]; LD-CuB 0.5 mg/kg", "result": "117 ± 6", "unit": "mg"}, {"measurement": "protein levels of cyclin A and p21^WAF1", "setting": "[9]", "result": "increased the protein levels of cyclin A and cyclin-dependent kinase inhibitor 1 (p21^WAF1) in both cells"}]}]}
